Entries after “also recorded” stand apart in the source; their conditions may differ.
How the values were obtained:
THP-1 cells = assay: Cellular metabolic activity, resazurin reduction assay, THP-1; type: cell-based, human; details: THP-1 monocytes, concentrations examined (abstract: up to 500 µM)
Protocol: The human keratinocytes (HaCaT, CLS 300493, Eppelheim, Germany) cell line was cultured with Dulbecco’s Modified Eagle’s Medium (DMEM) (Sigma-Aldrich, St. Louis, MO, USA), supplemented with 10% (v/v) of heat-inactivated fetal bovine serum (FBS), 1% (v/v) antibiotic solution (from a 10,000 U/mL penicillin and 10,000 μg/mL streptomycin stock) (Gibco, Carlsbad, CA, USA), 3.7 g/L sodium bicarbonate, and 1 mM sodium pyruvate (Sigma-Aldrich, St. Louis, MO, USA). The cell culture of keratinocytes was detached with EDTA solution 1X (Sigma-Aldrich, St. Louis, MO, USA) when the cells reached 70–80% confluence in cell culture flasks. The mouse macrophage cell line (RAW 264.7, ATCC TIB-71, Manassas, VA, USA) was cultured in DMEM supplemented with 10% (v/v) non-inactivated FBS, 1% (v/v) antibiotic solution, 1.5 g/L sodium bicarbonate, and 1 mM sodium pyruvate. Macrophages were mechanically detached with a cell scraper and subcultured in (1:10) proportion of cellular suspension to a final volume of DMEM. […] The metabolic activity of human epidermal keratinocytes (HaCaT), murine macrophages (RAW264.7), and human monocytes (THP-1) was assessed using a resazurin reduction assay. […] The absorbance was read at 570 and 620 nm using a SpectraMax Plus 384 absorbance microplate spectrophotometer (Molecular Devices, San Jose, CA, USA). […]

[1] = set-up: method as in earlier work; details: ref (2) of the supplement; read-out: DPPH scavenging EC50 (literature value); cited from earlier work

| SMILES | effect on cell viability / metabolic activity (THP-1 cells) | EC50 [1] |
| --- | --- | --- |
| O=C1OC(C(COS(=O)(=O)O)OS(=O)(=O)O)C(OS(=O)(=O)O)=C1OC1OC(COS(=O)(=O)O)C(OS(=O)(=O)O)C(OS(=O)(=O)O)C1OS(=O)(=O)O [AAGS, 2-O-α-D-glucopyranosyl-L-ascorbic acid persulfate] | did not adversely impact cell viability; also recorded: did not affect the metabolic activity |  |
| O=C1O[C@H]([C@@H](O)CO)C(O)=C1O [AA, Ascorbic acid] |  | 16.3 ± 0.569 µM |
